Read-outs that look alike come from different tables or passages of the source. Values belong to the compound of their own block, whether it stands above or below them.
Columns and labels:
[1] = in vitro; conditions: human
[2] = molecular target: gp120 (Human immunodeficiency virus type 1 group M subtype B, UniProt P03375); assay: biochemical; format: binding, HIV
[3] = test system: HIV-2 (ROD); assay: Anti-HIV-2 activity in MT-4 cell cultures
[4] = test system: HIV-1 (NL4.3); assay: Anti-HIV-1 activity in MT-4 cell cultures
[5] = test system: EV71 BrCr laboratory-adapted strain; assay: Anti-EV71 assay, BrCr laboratory-adapted strain in RD cells; conditions: Enterovirus A
[6] = in vitro; conditions: human; remark: listed apart in the source
[7] = test system: MT-4 cells; conditions: read-out: CC50 (MT-4); MT-4 cultures; host cell viability
[8] = test system: EV71 VP1_S184T_ P246S (RES); format: cell-based

Kd ([2]; KD (10^−6) (M), apparent KD, SPR, three replicates): 6.92e-06 M
Kd ([2]; apparent KD for binding to gp120, SPR): 6.9e-06 M
kon ([2]; read-out: Ka (10^3) (1/M.s)): 2760 ± 1000 M⁻¹ s⁻¹
EC50 ([3]; Human immunodeficiency virus 2, MT4, read-out: HIV-2 EC50): 5.9 ± 3.7 µM
EC50 ([4]; Human immunodeficiency virus 1, MT4, read-out: HIV-1 EC50): 3.3 ± 1.2 µM
Compound: CN[C@@H]1[C@H](O[C@@H]2OC[C@@H](O)[C@H](O)[C@H]2O)[C@@H](O)[C@H](O[C@H]2c3cc(C)c(C(=O)N[C@H](C)C(=O)O)c(O)c3-c3c(cc4c(c3O)C(=O)c3cc(OC)cc(O)c3C4=O)[C@@H]2O)O[C@@H]1C [PRM-A, pradimycin A]
CC50 [1]: > 100 µM

Compound: CCOC(=O)c1ccc(OCCC2CCN(c3ccc(C)nn3)CC2)cc1 [Pirodavir, pirodavir]
EC90 ([5]; EV71, RD, read-out: EV71 EC90): 0.6 ± 0.2 µM
CC50 [6]: > 100 µM

Compound: dextran sulfate-5000 [DS-5000]
CC50 [7]: > 20 µM
EC50 ([3]; read-out: HIV-2 EC50, MT-4 cultures, inhibition of virus-induced cytopathicity by 50%): 0.03 ± 0.01 µM
EC50 ([4]; read-out: HIV-1 EC50, MT-4 cultures, inhibition of virus-induced cytopathicity by 50%): 0.07 ± 0.02 µM

Compound: CCOC(=O)/C=C/[C@H](C[C@@H]1CCNC1=O)NC(=O)[C@@H](CC(=O)[C@@H](NC(=O)c1cc(C)on1)C(C)C)Cc1ccc(F)cc1 [Rupintrivir, rupintrivir]
EC50 ([5]; EV71|EVA71, RD, read-out: EV-A71 BrCr (WT) EC50): 0.014 ± 0.004 µM
antiviral activity against the mutant virus strain ([8]; EV-71 variant (RES)): retained full antiviral activity
EC50 ([8]; read-out: VP1_S184T_ P246S (RES) EC50): 0.016 ± 0.006 µM
